This test concerns SK-MEL-2 cells. The test can be described thus: MTT proliferation inhibition, NRAS mutant melanoma cell line. Particulars: Homo sapiens, SK-MEL-2, 72 h.

Read-outs that look alike come from different tables or passages of the source.

Description: All cells were provided by Beijing Cancer Hospital. Human melanoma cell line SK-MEL-2 (NRAS Q61R) was cultured with MEM supplemented with 10%FBS and penicillin streptomycin in an incubator at 37 °C and 5% carbon dioxide.
When the confluence of the cultured cells reached more than 80%, the adherent cells were digested with trypsin and the cell precipitate was collected by centrifugation, counted, and 90 µL of the cell suspension was seeded in a 96-well plate at the appropriate density. […] Each concentration was set up three multiple Wells, a total of 9 concentration points. The Wells added with the same volume of 5% DMSO were used as control, and the final concentration of DMSO was 0.5%. After 3 days of drug treatment, the cell viability was detected by MTT, and 10 µL MTT was added to each well and incubated in the incubator for another 4 hours. After the supernatant was discarded and 150 µL DMSO was added to dissolve the crystal, and the absorbance at 490 nm was detected by microplate reader. The above experiments were repeated three times. The dose-effect curve was made and IC50 was calculated by GraphPad Prism 8 software.

Turning to `Cn1cnc2c(F)c(Nc3ccc(Br)cc3F)c(C(=O)NOCCO)cc21` [MEK162], the IC50 reads like this: (read-out: IC5o(nM) 1st) 74.8 nM; (read-out: IC5o(nM) 2nd) 68.3 nM; (read-out: IC5o(nM) 3rd) 222 nM; (read-out: Mean value (nM)) 122 nM.

The record behind these values is patent EP4663631A1, “POLYMORPH AS PROTEIN KINASE MEK INHIBITOR, AND PREPARATION METHOD THEREFOR AND USE THEREOF” (Shanghai Kechow Pharma, Inc., priority 2023, dated 2024).
